Experimental data: ChEMBL document CHEMBL1201862, “PubChem BioAssay data set” (2004)
The source made the active and inactive calls. For most assays here, no stated cut-off is given here; in the data, actives have a measured EC50 and inactives only a lower limit.

Key:
[1] = target: T1, RNA-binding protein pos-1 (Caenorhabditis elegans, UniProt G5EF15); experiment: disruptors of C. elegans POS-1 RNA interaction – biochemical, fluorescence polarization, dose response (AID 1964);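 further: purified POS-1 fused to maltose binding protein made in E. coli; potency of compounds blocking POS-1 binding to fluorescent RNA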
T1 sequence (G5EF15 whole entry): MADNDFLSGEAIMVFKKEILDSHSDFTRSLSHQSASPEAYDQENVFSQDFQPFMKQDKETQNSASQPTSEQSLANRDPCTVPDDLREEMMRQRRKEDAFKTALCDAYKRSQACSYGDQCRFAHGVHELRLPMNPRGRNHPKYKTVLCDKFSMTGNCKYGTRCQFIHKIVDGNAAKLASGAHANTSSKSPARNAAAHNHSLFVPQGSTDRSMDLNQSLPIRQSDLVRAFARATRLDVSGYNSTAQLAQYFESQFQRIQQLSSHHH

[2] = target: T2, Zinc finger protein mex-5 (Caenorhabditis elegans, UniProt Q9XUB2); experiment: potency of MEX-5 RNA-binding blockers – biochemical, C. elegans, fluorescence polarization, dose response (AID 1960)
T2 sequence (Q9XUB2 whole entry): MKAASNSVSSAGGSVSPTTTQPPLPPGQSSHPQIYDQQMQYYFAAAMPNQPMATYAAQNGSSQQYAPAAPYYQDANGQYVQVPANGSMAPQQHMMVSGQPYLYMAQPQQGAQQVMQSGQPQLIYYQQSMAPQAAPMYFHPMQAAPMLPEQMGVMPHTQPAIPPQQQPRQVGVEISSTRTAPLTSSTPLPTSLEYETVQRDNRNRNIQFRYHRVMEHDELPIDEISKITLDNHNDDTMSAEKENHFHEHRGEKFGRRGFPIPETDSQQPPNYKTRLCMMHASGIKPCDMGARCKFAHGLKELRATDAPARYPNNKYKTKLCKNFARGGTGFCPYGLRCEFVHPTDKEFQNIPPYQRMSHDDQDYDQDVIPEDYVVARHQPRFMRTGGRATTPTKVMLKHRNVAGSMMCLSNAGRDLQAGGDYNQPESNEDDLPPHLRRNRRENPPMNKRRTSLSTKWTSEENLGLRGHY

[3] = target: T3, Ubiquitin-conjugating enzyme E2 N (Homo sapiens, UniProt P61088); assay type: functional;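 further: Dose-response confirmation in a TR-FRET assay detecting UBC13-driven polyubiquitin chain formation, inhibition measured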
T3 sequence (P61088 whole entry): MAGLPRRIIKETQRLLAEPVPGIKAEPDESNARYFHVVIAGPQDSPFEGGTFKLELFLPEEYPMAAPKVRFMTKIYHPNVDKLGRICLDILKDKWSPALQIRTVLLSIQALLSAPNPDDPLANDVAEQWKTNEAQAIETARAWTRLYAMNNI

[4] = viability of uninfected HEp-2 cells – cell-based, HTS, cytotoxicity control for RSV inhibitor project, dose response (AID 2410); assay type: functional; details: human respiratory syncytial virus
[5] = viability of PTEN-deleted HCT116 cells – cell-based, HCT116 PTEN knockout, dose response (AID 1047); assay type: functional;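 further: HCT116 colon tumor cells with PTEN knocked out; cells exposed to compound for 60 hours before readout; potency for loss of cell viability measured by luminescence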
[6] = viability of HCT116 lacking mutant beta-catenin – cell-based, human colon tumor, dose response (AID 1045); assay type: functional;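 further: HCT116 colon tumor cells with beta catenin knocked out; cells exposed to compound for 60 hours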
H4 = experiment: Luminescence Cell-Based Dose Response HTS to Identify Activators of 5'UTR Stem-Loop Driven Prion Protein mRNA Translation in H4 Neuroglioblastoma Cells. [Related pubchem assays: 1829 (Project Summary), 1814 (Primary HTS)]; assay type: functional; details: Homo sapiens
[7] = target: Luciferin 4-monooxygenase (Photinus pyralis, UniProt P08659); experiment: inhibition of purified Photinus pyralis luciferase – biochemical, luminescence, dose response (AID 1891)
[8] = target: T4, Rac GTPase-activating protein 1 (Homo sapiens, UniProt Q9H0H5); experiment: blockers of MgcRacGAP-driven Rac1 GTP hydrolysis – biochemical, ADP Hunter fluorescence, primary and confirmatory, confirmation (AID 624330); assay type: functional
T4 sequence (Q9H0H5 whole entry): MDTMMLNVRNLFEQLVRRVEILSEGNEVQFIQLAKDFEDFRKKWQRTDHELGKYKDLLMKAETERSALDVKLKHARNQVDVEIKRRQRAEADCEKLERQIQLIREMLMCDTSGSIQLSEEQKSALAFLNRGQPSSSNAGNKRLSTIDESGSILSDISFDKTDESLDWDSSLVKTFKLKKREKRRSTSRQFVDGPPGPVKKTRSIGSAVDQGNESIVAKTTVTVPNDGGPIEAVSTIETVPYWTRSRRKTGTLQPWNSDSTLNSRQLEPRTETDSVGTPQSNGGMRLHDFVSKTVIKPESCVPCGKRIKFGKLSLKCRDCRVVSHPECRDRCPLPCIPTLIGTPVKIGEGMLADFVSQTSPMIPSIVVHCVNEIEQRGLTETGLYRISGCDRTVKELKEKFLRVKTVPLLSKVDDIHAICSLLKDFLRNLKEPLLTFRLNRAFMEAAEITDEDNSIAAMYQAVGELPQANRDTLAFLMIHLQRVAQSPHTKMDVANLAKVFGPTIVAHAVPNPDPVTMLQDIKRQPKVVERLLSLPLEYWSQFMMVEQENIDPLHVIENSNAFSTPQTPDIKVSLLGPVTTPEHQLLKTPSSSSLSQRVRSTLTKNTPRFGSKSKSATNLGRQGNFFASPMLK

[9] = Luminescence Cell-Based Dose Confirmation HTS to Identify Inhibitors of Platelet Dense Granule Release. [Related pubchem assays: 1663 (Primary HTS), 1678 (Summary of Project)]; assay type: functional
[10] = Luminescence Cell-Based Dose Response HTS to Identify Activators of Luciferase Translation or Activity in H4 […] Cells. [Related pubchem assays: 1829 (Project Summary), 1814 (Primary HTS)]; assay type: functional
[11] = Luminescence Cell-Based Dose Confirmation HTS to Identify Activators of 5'UTR Stem-Loop Driven Alpha-Synuclein mRNA Translation in H4 Neuroglioblastoma Cells. [Related pubchem assays: 1829 (Project Summary), 1814 (Primary HTS)]; assay type: functional
cells = assay type: functional
[12] = target: T5, Corticotropin-releasing factor receptor 2/Corticotropin-releasing factor-binding protein (Homo sapiens, UniProt P24387+Q13324); experiment: activators of CRF receptor 2 with binding protein – uHTS hits, confirmation (AID 602473); assay type: functional; details: read-out: EC50_Mean
T5 sequence (Q13324 whole entry): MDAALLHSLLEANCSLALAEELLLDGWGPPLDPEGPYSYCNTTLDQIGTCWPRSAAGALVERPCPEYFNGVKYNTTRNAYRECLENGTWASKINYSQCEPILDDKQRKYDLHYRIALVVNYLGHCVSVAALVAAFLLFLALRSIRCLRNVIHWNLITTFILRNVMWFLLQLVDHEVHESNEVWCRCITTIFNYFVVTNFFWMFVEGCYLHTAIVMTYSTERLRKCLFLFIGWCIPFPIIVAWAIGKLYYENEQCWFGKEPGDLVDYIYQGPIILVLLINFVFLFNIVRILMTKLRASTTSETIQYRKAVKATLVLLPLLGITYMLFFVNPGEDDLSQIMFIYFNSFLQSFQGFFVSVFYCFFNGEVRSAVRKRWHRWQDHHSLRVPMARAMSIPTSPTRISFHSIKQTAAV
T5 sequence (P24387 whole entry): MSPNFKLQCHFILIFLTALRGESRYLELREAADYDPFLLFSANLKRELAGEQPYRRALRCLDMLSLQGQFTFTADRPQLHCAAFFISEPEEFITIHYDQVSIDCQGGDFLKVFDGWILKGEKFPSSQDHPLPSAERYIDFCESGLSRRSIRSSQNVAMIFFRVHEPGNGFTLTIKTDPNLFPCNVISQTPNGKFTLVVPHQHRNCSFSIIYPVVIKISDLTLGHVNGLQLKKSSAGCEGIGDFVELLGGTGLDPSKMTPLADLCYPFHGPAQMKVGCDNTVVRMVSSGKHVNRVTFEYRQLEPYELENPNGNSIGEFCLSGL

Streptokinase A = target: T6, Streptokinase A (Streptococcus pyogenes serotype M1, UniProt P10520); experiment: viability-normalized secreted streptokinase activity reduction – plasminogen activation absorbance, OD405, dose response (AID 1914); assay type: functional, Streptococcus pyogenes M1 GAS;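 further: secreted streptokinase activity via plasminogen activation per viability signal from cell pellet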
T6 sequence (P10520 whole entry): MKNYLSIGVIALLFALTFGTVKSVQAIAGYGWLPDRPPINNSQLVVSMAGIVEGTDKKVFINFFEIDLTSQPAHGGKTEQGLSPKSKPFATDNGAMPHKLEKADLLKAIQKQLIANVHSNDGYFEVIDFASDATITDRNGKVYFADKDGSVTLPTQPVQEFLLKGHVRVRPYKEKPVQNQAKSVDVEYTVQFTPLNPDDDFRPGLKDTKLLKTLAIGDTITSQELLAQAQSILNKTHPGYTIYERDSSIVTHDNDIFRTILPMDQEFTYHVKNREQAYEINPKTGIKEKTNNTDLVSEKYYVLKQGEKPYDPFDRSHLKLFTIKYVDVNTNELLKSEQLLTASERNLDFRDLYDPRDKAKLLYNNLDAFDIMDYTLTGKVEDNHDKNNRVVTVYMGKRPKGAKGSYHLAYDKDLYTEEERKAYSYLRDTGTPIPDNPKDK

[13] = tested on: Streptococcus sp. 'group A'; experiment: Streptococcus pyogenes SK(-)GAS viability under kanamycin – luminescence, BacTiterGlo, confirmation, counter-screen for streptokinase expression inhibitor project, dose response (AID 1900); assay type: functional, organism-based
Streptococcus = experiment: GAS UMAA2166 growth inhibition – luminescence, BacTiterGlo, counter-screen for streptokinase expression inhibitor project, dose response (AID 1915); assay type: functional, organism-based;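 further: potency for reduction of bacterial viability or growth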

Sequence of Luciferin 4-monooxygenase (P08659 whole entry): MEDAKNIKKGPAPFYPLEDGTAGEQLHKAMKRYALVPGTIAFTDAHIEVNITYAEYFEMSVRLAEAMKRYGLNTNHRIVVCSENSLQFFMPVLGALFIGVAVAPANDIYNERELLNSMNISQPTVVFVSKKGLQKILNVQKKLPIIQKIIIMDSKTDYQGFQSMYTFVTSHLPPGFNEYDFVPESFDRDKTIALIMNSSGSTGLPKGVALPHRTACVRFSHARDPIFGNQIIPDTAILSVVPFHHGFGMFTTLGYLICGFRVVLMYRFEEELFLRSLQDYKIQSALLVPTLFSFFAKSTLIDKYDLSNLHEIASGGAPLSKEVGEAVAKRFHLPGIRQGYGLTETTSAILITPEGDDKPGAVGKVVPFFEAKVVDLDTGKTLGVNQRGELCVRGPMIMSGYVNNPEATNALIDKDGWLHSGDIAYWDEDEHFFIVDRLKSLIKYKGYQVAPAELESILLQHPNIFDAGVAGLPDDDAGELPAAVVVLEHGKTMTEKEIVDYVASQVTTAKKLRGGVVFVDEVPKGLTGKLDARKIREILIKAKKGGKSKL

COCCCNC(=O)CCC(=O)NNc1nc2ccccc2c2nc(C)nn12
EC50 [1]: > 300 µM (not active) | EC50 [2]: 1.13 µM (active)

COc1ccc(/C=N/NC(=O)CSCc2ccc([N+](=O)[O-])cc2)cc1OC
IC50 [3]: > 20 µM (inactive)

Cc1c(C(=O)Nc2ccc(S(=O)(=O)N(C)C3CCN(C)CC3)cc2)oc2ccccc12
CC50 [4]: 17.2 µM (active) | IC50 [3]: > 20 µM (inactive)

O=C(NC1CCCCC1)C(c1ccccc1F)N(Cc1ccco1)C(=O)Cn1nnc2ccccc21 (configuration not stated)
EC50 [5]: 16 µM (active) | EC50 [6]: 16 µM (active)

CC(C)=C(NC(=O)c1ccccc1)C(=O)N/N=C/c1ccc(O)cc1
EC50 (H4): 8.89 µM (active) | EC50 [7]: > 112 µM (not active) | IC50 [8]: 102 µM (active) | EC50 [9]: > 112 µM (not active) | EC50 [10]: 11.8 µM (active) | EC50 [11]: 11.3 µM (active)

CO[C@H]1O[C@H](CBr)[C@@H](OC(=O)c2ccccc2)[C@H](O)[C@H]1O
EC50 [1]: > 300 µM (not active) | EC50 [2]: > 300 µM (not active)

COc1ccc(C[C@H]2CN3C(=NC[C@@H]3Cc3ccccc3)N2CCNC(=O)c2ccc(C)c(Br)c2)cc1
IC50 [3]: > 20 µM (inactive)

Cc1cc(NC(=O)COC(=O)COc2ccc(C(=O)c3ccccc3)cc2)no1
IC50 (cells): 21.2 µM (active)

Cc1nn(-c2ccc(Cl)nn2)c(=O)c2ccccc12
EC50 (H4): 16.4 µM (active) | EC50 [10]: 14.4 µM (active) | EC50 [11]: 12.5 µM (active)

CC(=O)c1ccc(OCC(=O)Nc2ccc3c(c2)CCC3)cc1
IC50 (cells): > 50 µM (active)

Cc1ccc(NC(=O)c2ccc(NCCN)c([N+](=O)[O-])c2)cc1Cl
CC50 [4]: 24.4 µM (active) | IC50 [3]: > 20 µM (inactive)

CN(C)c1ccc(C=C2SC(=S)N(Cc3ccco3)C2=O)cc1
EC50 [12]: 3.2 µM (active)

O=C1c2ccccc2C(=O)N1CCN1CCc2ccccc21
EC50 (H4): 30.3 µM (active) | EC50 [10]: 17.9 µM (active) | EC50 [11]: 13.7 µM (active)

N#Cc1ccc(-c2ccc(OCC3CNC(=O)O3)cc2)cc1 (configuration not stated)
EC50 (H4): 11.3 µM (active) | EC50 [10]: 36.9 µM (active) | EC50 [11]: 0.187 µM (active)

CC(=O)Nc1nc2ccccc2n1CCOc1ccccc1
EC50 [5]: 15.4 µM (active) | EC50 (Streptokinase A): > 150 µM (not active) | EC50 [13]: 11.3 µM (active) | EC50 (Streptococcus): > 150 µM (not active) | EC50 [6]: 12.7 µM (active)

O=C1C2=C(SCCS2)C(=O)N1c1ccccc1
EC50 [1]: > 300 µM (not active) | EC50 [2]: > 300 µM (not active)

CC1=CC(C)(C)N2C(=O)C3(C(C#N)=C(N)OC4=C3C(=O)CC(C)(C)C4)c3cc(C)cc1c32 (configuration not stated)
EC50 [1]: > 300 µM (not active) | EC50 [2]: > 300 µM (not active)

Cc1cccc(-c2nc(C#N)c(N3CCCCC3)o2)c1
EC50 (H4): 3.9 µM (active) | EC50 [10]: 20 µM (active) | EC50 [11]: 10 µM (active)

Cc1cc(N/N=C/c2cccc(Cl)c2)nc(NCc2ccccc2)n1
EC50 [5]: 35.3 µM (active) | EC50 [6]: 39.6 µM (active)

CN(C)CCCN(C(=O)c1ccc(S(=O)(=O)N2CCCC2)cc1)c1nc2ccc(Br)cc2s1
IC50 [3]: > 20 µM (inactive)

C/C(=N\NC(=O)c1c(Br)c(C)nn1C)c1ccc(NC(=O)C(C)Oc2ccc(Cl)cc2C)cc1 (configuration not stated)
EC50 [5]: 11 µM (active) | EC50 [6]: 15.1 µM (active)

Cc1[n-][o+]nc1OCCNCCNc1ccc([N+](=O)[O-])c2cccnc12
EC50 [1]: 120 µM (active) | EC50 [2]: 18.6 µM (active)

Cc1cccc(OCC(=O)NC(C)C(=O)N/N=C/c2c(OCc3ccccc3)ccc3ccccc23)c1 (configuration not stated)
EC50 (H4): 33.5 µM (active) | EC50 [10]: 39.7 µM (active) | EC50 [11]: 9.47 µM (active)
